Experimental data: patent US20240327421A1 (Marquette University, priority 2017, published 2024)
“Also recorded” adds a separate entry of the source.

Assays:
[1] = biological target: T1, Progesterone Receptor (PR) (Homo sapiens, UniProt P06401); experiment: GeneBLAzer nuclear hormone receptor specificity assay, PR; format: cell-based; conditions: 0.25 to 25 μM; listed as ISP358-2
T1 sequence (P06401 679-913 limits assumed): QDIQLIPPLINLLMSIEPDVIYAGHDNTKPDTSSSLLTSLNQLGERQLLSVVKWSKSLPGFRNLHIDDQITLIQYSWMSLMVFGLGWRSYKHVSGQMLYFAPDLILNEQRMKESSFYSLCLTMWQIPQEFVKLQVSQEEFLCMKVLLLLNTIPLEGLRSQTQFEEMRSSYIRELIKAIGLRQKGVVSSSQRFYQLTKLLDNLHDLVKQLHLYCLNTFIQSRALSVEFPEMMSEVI
Description: Nuclear Hormone Receptor Specificity Assay. Selectivity measurements were performed using the SelectScreen™ cell-based nuclear receptor profiling service from ThermoFisher (FIG. 3A). This is a FRET-based assay that uses GeneBLAzer™ technology. It detects ligand binding to and activation of a nuclear hormone receptor of interest (ligand binding domain; LBD) that is fused to a GAL4 DNA binding domain (DBD), which upon activation induces expression of beta-lactamase. The assay has a Z′≥0.5 in agonist mode. […]

ovariectomized mice [2] = experiment: Bloodwork chemistry and hematology panel; format: in vivo; conditions: single IP injection, 0.5 or 5 mg/kg
Description: FIG. 14. Bloodwork panel for tissue pathology analysis for ISP358-2. Bloodwork hematology analysis was performed by Animal Reference Pathology, LLC in Salt Lake City, Utah (animalreferencepathology.com). Reference ranges are from Charles River Laboratories for CrL: Wi (Han) female 8-16 weck old rats. Blood samples were taken via cardiac puncture at the same time point and treatment conditions as in FIGS. 13A-13M. […] In some cases hemolysis occurred, likely due to the blood collection procedure, which precluded analysis for those samples, thus, samples sizes in the analysis were 6-8. The mean and standard error of the mean of cach group is listed in the table, along with outcomes from one-way ANOVA statistical analysis. […] The hematology samples were analyzed by a Sysmex XT-2000iV using veterinary software and the rat species setting.^3 The reagents for individual assays were sourced from either Seimens, RandOx or Sekisui.

[3] = biological target: T2, human ER Alpha ligand-binding domain (LBD) (Homo sapiens, UniProt P03372); experiment: TR-FRET competitive binding assay, ERα LBD; conditions: displacement of fluorescent tracer from ERα LBD
T2 construct: purchased Thermo Fisher Scientific
T2 sequence (P03372 311-547 limits assumed): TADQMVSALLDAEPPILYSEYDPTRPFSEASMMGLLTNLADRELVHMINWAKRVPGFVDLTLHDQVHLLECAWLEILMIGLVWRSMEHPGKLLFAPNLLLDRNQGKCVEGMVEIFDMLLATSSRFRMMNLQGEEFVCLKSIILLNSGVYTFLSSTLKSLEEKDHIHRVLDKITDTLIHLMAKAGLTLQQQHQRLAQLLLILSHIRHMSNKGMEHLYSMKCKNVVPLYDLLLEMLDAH
From the text: TR-FRET Assay. LanthaScreen® TR-FRET ER Alpha and Beta Competitive Binding Assay kits from Thermo Fisher Scientific were used to perform the TR-FRET assays. These included a terbium-labeled anti-GST antibody, a fluorescent small molecule ER Alpha or Beta ligand as a “tracer”, and a human ER Alpha or Beta ligand -binding domain (LBD) that is tagged with glutathione-S-transferase (GST) in a homogenous mix- and -read assay format.
The TR-FRET assay employs a Tb-anti-GST antibody that binds to a GST tag, and a fluorescently labeled estrogen (tracer) binds in the active site pocket. The TR-FRET signal obtained decreases when competitor compounds displace the fluorescently labeled tracer. Assays were performed according to kit instructions. Briefly, 1:5 dilution series of compounds were made with DMSO, then diluted in assay buffer such that the highest concentration tested in the assay was 50 μM for ERβ and 50 μM for ERα and DMSO was 1%. […] TR-FRET signal was read on a SpectraMax M5 (Molecular Devices) set-up according to Thermo Fisher Scientific machine settings (excitation of 332 nm, emissions 518 nm and 488 nm with a 420 nm cutoff, 50 μs integration delay, 400 μs integration time, and 100 flashes per read). The TR-FRET ratio was calculated using the SoftmaxPro software by dividing the emission at 518 nm (fluorescein) by the emission at 488 nm (Terbium). […]

[4] = biological target: T3, Thyroid Hormone Receptor (TRβ) (Homo sapiens, UniProt P10828); experiment: GeneBLAzer nuclear hormone receptor specificity assay, TRβ; format: cell-based; conditions: 0.25 to 25 μM; listed as ISP358-2
T3 sequence (P10828 217-461 limits assumed): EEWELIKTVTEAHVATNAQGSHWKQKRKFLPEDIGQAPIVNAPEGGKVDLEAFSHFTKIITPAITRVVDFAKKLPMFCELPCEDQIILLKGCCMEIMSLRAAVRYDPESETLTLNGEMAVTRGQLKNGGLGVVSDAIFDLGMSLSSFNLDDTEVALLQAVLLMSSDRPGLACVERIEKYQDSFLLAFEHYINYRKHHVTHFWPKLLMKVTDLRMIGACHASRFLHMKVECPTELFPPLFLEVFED

ovariectomized mice [5] = experiment: Peripheral tissue pathology (H&E of liver, kidney, heart); format: in vivo; conditions: 24 h after single IP injection; 0.5 or 5 mg/kg ISP358-2, 0.05 mg/kg DPN
Description: Assessment of Potential Peripheral Pathology. To assess possible toxicity of ISP358-2 treatment to peripheral organs, ovariectomized mice received a single intraperitoneal injection of vehicle or ISP358-2, and liver, kidney, and heart tissues were collected 24 hours later. […] Tissues were fixed in 10% formalin buffered solution for 24 hours. Twenty specimens were processed and analyzed. Each specimen contained three pieces of tissue. The tissues from each animal was transferred to a labeled cassette and processed on an automated tissue processor following standard procedures. The tissues were then embedded in paraffin wax. No specific orientation of the tissue was performed. Four-micron sections were cut from each paraffin block and placed onto a slide. The slides were then stained using hematoxylin and cosin (H&E) on an automated stainer (FIGS. 13A-13L). The slides were then examined by a pathologist (ACM) who is board certified in anatomical pathology by the American Board of Pathology. All specimens contained three tissue samples corresponding to liver, kidney, and heart. In some instances, portions of adjacent tissues were also present. […] For heart, the myocytes and coronary vessels were examined, (2) evidence of inflammation was evaluated including hepatitis, glomerulonephritis, interstitial nephritis, and myocarditis, and (3) evidence of ischemic changes was examined. […]

OC[C@H]1CC[C@H](c2ccc(O)cc2)CC1 [Compound 16]
agonist activity, PR [1]: not an agonist; also recorded: no significant off-target activity
bloodwork chemistry and hematology vs reference ranges (ovariectomized mice [2]): do not show significant deviations from expected reference ranges
IC50 [3]: 0.289 ± 0.092 µM
agonist activity, TRβ [4]: not an agonist; also recorded: no significant off-target activity
histological abnormalities / peripheral toxicity in liver, kidney, heart (ovariectomized mice [5]): unremarkable; also recorded: no obvious signs of peripheral toxicity; also recorded: Histological abnormalities were not detected
